Where “and” joins values, the source holds several entries; their conditions need not be identical. Identical values can stand only once.
Tests used:
[1] = target: T1, human glutathione S-transferase P1-1 (GSTP1-1) (Homo sapiens, UniProt P09211); assay: CDNB assay of GST activity and inhibition, GST P1-1; type: biochemical; settings: for IC50: first value of the cell GSTP1-1/GSTA1-1, CDNB assay, 20 nM GST; for fold greater affinity for GSTP1-1 (lower IC50) than the ligand domain alone: versus corresponding ligand domain (GS-NB/IId, IIg, IIId, IVk)
T1 construct: made in house; host or cells: E. coli
T1 sequence (P09211 2-210 limits assumed): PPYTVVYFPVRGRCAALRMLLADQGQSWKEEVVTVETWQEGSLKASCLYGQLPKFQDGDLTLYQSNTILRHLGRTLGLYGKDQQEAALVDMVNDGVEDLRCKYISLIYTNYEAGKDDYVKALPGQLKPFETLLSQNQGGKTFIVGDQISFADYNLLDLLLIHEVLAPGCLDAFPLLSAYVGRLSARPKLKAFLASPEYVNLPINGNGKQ
Protocol: (§1) GST isozymes. […] The enzyme was incubated with 10 mM dithiothreitol to ensure complete reduction of cysteine residues, followed by extensive dialysis to remove the reducing agent. […] Plasmodium GST (pGST) was a gift from Dr. Katja Becker (Justus Liebig University of Giessen), and murine GSTP and GSTA were gifts from Dr. Dave Eaton (University of Washington). Except where otherwise stated (i.e. testing of pGST in Example 6.4.5 and testing of murine GSTs in Example 6.4.7), GST isozymes tested were from human.
(§2) GST assays. Assays of GST activity and inhibition were performed with chloro-2,4-dinitrobenzene (CDNB) as the electrophilic substrate. Except where otherwise stated, GST concentration was 20 nM. […] Rates were determined by measuring absorption at 340 nm (λmax of glutathione-dinitrobenzene) for 1 minute on a Beckman DU 7400 spectrophotometer. For IC50 determinations, assays were performed at inhibitor concentrations ranging over at least […] (from 100-fold above the IC50 to 100-fold below). Data were fit to a sigmoidal dose-response function using GraphPad Prism to determine the 50% inhibitory concentration.

[2] = target: T2, human glutathione S-transferase A1-1 (GSTA1-1) (Homo sapiens, UniProt P08263); assay: CDNB assay of GST activity and inhibition, GST A1-1; type: biochemical; settings: second value of the cell GSTP1-1/GSTA1-1, 20 nM GST
T2 construct: made in house; host or cells: E. coli
T2 sequence (P08263 1-222): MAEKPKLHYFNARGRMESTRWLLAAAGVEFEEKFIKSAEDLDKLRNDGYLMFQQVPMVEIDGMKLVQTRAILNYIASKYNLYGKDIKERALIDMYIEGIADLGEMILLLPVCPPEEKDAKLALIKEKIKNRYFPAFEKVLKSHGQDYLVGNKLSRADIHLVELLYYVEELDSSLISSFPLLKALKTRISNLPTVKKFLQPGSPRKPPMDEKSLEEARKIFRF
Protocol: as §1, §2

Row | Structure (SMILES) | IC50 [1] | IC50 [2] | fold lower IC50 for GSTP1-1 than the monovalent inhibitor ([1]; versus IVj) | fold greater affinity for GSTP1-1 (lower IC50) than the ligand domain alone [1] | isozyme specificity GSTP1-1 versus GSTA1-1 ([1]; in words)
1 | NC(CCC(=O)NC(CSc1ccc(C(=O)OCCOC(=O)c2cccc(C(=O)OCCOC(=O)c3ccc(SCC(NC(=O)CCC(N)C(=O)O)C(=O)NCC(=O)O)c([N+](=O)[O-])c3)c2)cc1[N+](=O)[O-])C(=O)NCC(=O)O)C(=O)O (stereo not shown) [IIb] | 2900 nM | 1600 nM |  |  | 
2 | C=C(CC)C(=O)c1ccc(OCC(=O)Nc2ccc(NC(=O)COc3ccc(C(=O)C(=C)CC)c(Cl)c3Cl)cc2)c(Cl)c1Cl [IVb, Bis-1,4-ethacrynyl-phenylenediamine] | > 10000 nM | 1310 nM |  |  | 
3 | NC(=O)c1cc(CNC(=O)CCCNC(=O)CSCC(NC(=O)CCC(N)C(=O)O)C(=O)NCC(=O)O)cc(CNC(=O)CCCNC(=O)CSCC(NC(=O)CCC(N)C(=O)O)C(=O)NCC(=O)O)c1 (stereo not shown) [Ig] | 24800 nM | > 10000 nM |  |  | 
4 | C=C(CC)C(=O)c1ccc(OCC(=O)NCCCCCCCC(=O)NCc2cc(CNC(=O)CCCCCCCNC(=O)COc3ccc(C(=O)C(=C)CC)c(Cl)c3Cl)cc(C(N)=O)c2)c(Cl)c1Cl [IVh] | 31 nM | 54 nM | 403 fold | approximately 129 fold | 
5 | NC(CCC(=O)NC(CSCCCCCCCCCOC(=O)CCCCCCCSCC(NC(=O)CCC(N)C(=O)O)C(=O)NCC(=O)O)C(=O)NCC(=O)O)C(=O)O (stereo not shown) [Ib] | 300 nM | 340 nM |  |  | 
6 | COC(=O)CCCCCCCSCC(NC(=O)CCC(N)C(=O)O)C(=O)NCC(=O)O (stereo not shown) [If*, reference compound] | 3800 nM | 3800 nM |  |  | 
7 | Nc1c(S(=O)(=O)O)cc(Nc2cccc(S(=O)(=O)CCNCCCNC(=O)c3cccc(C(=O)NCCCNCCS(=O)(=O)c4cccc(Nc5cc(S(=O)(=O)O)c(N)c6c5C(=O)c5ccccc5C6=O)c4)c3)c2)c2c1C(=O)c1ccccc1C2=O [IIIc] | 440 nM | > 100000 nM |  |  | 
8 | NC(CCC(=O)NC(CSCCCCCCCCOC(=O)CCCCCCCSCC(NC(=O)CCC(N)C(=O)O)C(=O)NCC(=O)O)C(=O)NCC(=O)O)C(=O)O (stereo not shown) [Ia] | 360 nM | 200 nM |  |  | 
9 | NC(CCC(=O)NC(CSCCCCCCCCCCCCOC(=O)CCCCCCCSCC(NC(=O)CCC(N)C(=O)O)C(=O)NCC(=O)O)C(=O)NCC(=O)O)C(=O)O (stereo not shown) [Ie] | 190 nM | 140 nM |  |  | 
10 | CCNCCS(=O)(=O)c1cccc(Nc2cc(S(=O)(=O)O)c(N)c3c2C(=O)c2ccccc2C3=O)c1 [IIId*, reference compound] | 5000 nM | > 100000 nM |  |  | 
11 | NC(CCC(=O)NC(CSc1ccc(C(=O)OCCCOC(=O)c2cccc(C(=O)OCCCOC(=O)c3ccc(SCC(NC(=O)CCC(N)C(=O)O)C(=O)NCC(=O)O)c([N+](=O)[O-])c3)c2)cc1[N+](=O)[O-])C(=O)NCC(=O)O)C(=O)O (stereo not shown) [IIc] | 280 nM | 3300 nM |  |  | 
12 | Nc1c(S(=O)(=O)O)cc(Nc2cccc(S(=O)(=O)CCNCCOCCOCCOCCNCCS(=O)(=O)c3cccc(Nc4cc(S(=O)(=O)O)c(N)c5c4C(=O)c4ccccc4C5=O)c3)c2)c2c1C(=O)c1ccccc1C2=O [IIIb] | 72 nM | > 100000 nM |  |  | 
13 | NC(=O)c1cc(CNCCS(=O)(=O)c2cccc(Nc3cc(S(=O)(=O)O)c(N)c4c3C(=O)c3ccccc3C4=O)c2)cc(CNCCS(=O)(=O)c2cccc(Nc3cc(S(=O)(=O)O)c(N)c4c3C(=O)c3ccccc3C4=O)c2)c1 [IIIe] | 557 nM | > 10000 nM |  |  | 
14 | NC(=O)c1cc(CNC(=O)CCNCCS(=O)(=O)c2cccc(Nc3cc(S(=O)(=O)O)c(N)c4c3C(=O)c3ccccc3C4=O)c2)cc(CNC(=O)CCNCCS(=O)(=O)c2cccc(Nc3cc(S(=O)(=O)O)c(N)c4c3C(=O)c3ccccc3C4=O)c2)c1 [IIIg] | 162 nM | 2500 nM |  |  | 
15 | C=C(CC)C(=O)c1ccc(OCC(=O)NCCCC(=O)NCc2cc(CNC(=O)CCCNC(=O)COc3ccc(C(=O)C(=C)CC)c(Cl)c3Cl)cc(C(N)=O)c2)c(Cl)c1Cl [IVf] | 589 nM | 14 nM |  |  | 
16 | NC(CCC(=O)NC(CSc1ccc(C(=O)OCCOCCOCCOCCOC(=O)c2ccc(SCC(NC(=O)CCC(N)C(=O)O)C(=O)NCC(=O)O)c([N+](=O)[O-])c2)cc1[N+](=O)[O-])C(=O)NCC(=O)O)C(=O)O (stereo not shown) [IIa] | 4500 nM | 29000 nM |  |  | 

Row | Structure (SMILES) | IC50 [1] | IC50 [2] | fold lower IC50 for GSTP1-1 than the monovalent inhibitor ([1]; versus IVj) | fold greater affinity for GSTP1-1 (lower IC50) than the ligand domain alone [1] | isozyme specificity GSTP1-1 versus GSTA1-1 ([1]; in words)
17 | CCOC(=O)c1ccc(SCC(NC(=O)CCC(N)C(=O)O)C(=O)NCC(=O)O)c([N+](=O)[O-])c1 (stereo not shown) [IId*, reference compound] | 21000 nM | 30000 nM |  |  | no substantial isozyme specificity
18 | NC(CCC(=O)NC(CSCCCCCCCCCCCOC(=O)CCCCCCCSCC(NC(=O)CCC(N)C(=O)O)C(=O)NCC(=O)O)C(=O)NCC(=O)O)C(=O)O (stereo not shown) [Id] | 200 nM | 110 nM |  |  | 
19 | C=C(CC)C(=O)c1ccc(OCC(=O)NCCC(=O)NCc2cc(CNC(=O)CCNC(=O)COc3ccc(C(=O)C(=C)CC)c(Cl)c3Cl)cc(C(N)=O)c2)c(Cl)c1Cl [IVe] | 1200 nM | 12 nM and 12.3 nM |  |  | 
20 | NC(=O)c1cc(CNC(=O)CCCNCCS(=O)(=O)c2cccc(Nc3cc(S(=O)(=O)O)c(N)c4c3C(=O)c3ccccc3C4=O)c2)cc(CNC(=O)CCCNCCS(=O)(=O)c2cccc(Nc3cc(S(=O)(=O)O)c(N)c4c3C(=O)c3ccccc3C4=O)c2)c1 [IIIh] | ~22 nM and 22 nM | > 1000 nM |  | approximately 220 fold | 
21 | NC(=O)c1cccc(CNC(=O)CCCNCCS(=O)(=O)c2cccc(Nc3cc(S(=O)(=O)O)c(N)c4c3C(=O)c3ccccc3C4=O)c2)c1 [IIIl*, reference compound] | 854 nM | > 20000 nM |  | approximately 6 fold | 
22 | CCC(CSCC(NC(=O)CCC(N)C(=O)O)C(=O)NCC(=O)O)C(=O)c1ccc(OCC(=O)NCCCC(=O)NCc2cccc(C(N)=O)c2)c(Cl)c1Cl (stereo not shown) [IIf*, reference compound] | 1500 nM | 5830 nM |  |  | 
23 | NC(=O)c1cc(CNC(=O)CCCCCCCNCCS(=O)(=O)c2cccc(Nc3cc(S(=O)(=O)O)c(N)c4c3C(=O)c3ccccc3C4=O)c2)cc(CNC(=O)CCCCCCCNCCS(=O)(=O)c2cccc(Nc3cc(S(=O)(=O)O)c(N)c4c3C(=O)c3ccccc3C4=O)c2)c1 [IIIj] | 267 nM | > 220 nM |  |  | 
24 | Nc1c(S(=O)(=O)O)cc(Nc2cccc(S(=O)(=O)CCNCCOCCOCCNCCS(=O)(=O)c3cccc(Nc4cc(S(=O)(=O)O)c(N)c5c4C(=O)c4ccccc4C5=O)c3)c2)c2c1C(=O)c1ccccc1C2=O [IIIa] | 44 nM | > 100000 nM |  |  | 
25 | NC(=O)c1cc(CNC(=O)CNCCS(=O)(=O)c2cccc(Nc3cc(S(=O)(=O)O)c(N)c4c3C(=O)c3ccccc3C4=O)c2)cc(CNC(=O)CNCCS(=O)(=O)c2cccc(Nc3cc(S(=O)(=O)O)c(N)c4c3C(=O)c3ccccc3C4=O)c2)c1 [IIIf] | 437 nM | > 1000 nM |  |  | 
26 | CCC(CSCC(NC(=O)CCC(N)C(=O)O)C(=O)NCC(=O)O)C(=O)c1ccc(OCC(=O)NCCCC(=O)NCc2cc(CNC(=O)CCCNC(=O)COc3ccc(C(=O)C(CC)CSCC(NC(=O)CCC(N)C(=O)O)C(=O)NCC(=O)O)c(Cl)c3Cl)cc(C(N)=O)c2)c(Cl)c1Cl (stereo not shown) [IIe] | 353 nM | 3.8 nM |  | 30 fold | 
27 | NC(=O)c1cc(CNC(=O)CCCCCNCCS(=O)(=O)c2cccc(Nc3cc(S(=O)(=O)O)c(N)c4c3C(=O)c3ccccc3C4=O)c2)cc(CNC(=O)CCCCCNCCS(=O)(=O)c2cccc(Nc3cc(S(=O)(=O)O)c(N)c4c3C(=O)c3ccccc3C4=O)c2)c1 [IIIi] | 203 nM | > 1000 nM |  |  | 
28 | C=C(CC)C(=O)c1ccc(OCC(=O)NCc2cc(CNC(=O)COc3ccc(C(=O)C(=C)CC)c(Cl)c3Cl)cc(C(N)=O)c2)c(Cl)c1Cl [IVc] | 992 nM | 29.7 nM |  |  | 
29 | C=C(CC)C(=O)c1ccc(OCC(=O)Nc2cccc(NC(=O)COc3ccc(C(=O)C(=C)CC)c(Cl)c3Cl)c2)c(Cl)c1Cl [IVa, Bis-1,3-ethacrynyl-phenylenediamine] | > 10000 nM | 741 nM |  |  | 
30 | NC(CCC(=O)NC(CSCCCCCCCCCCOC(=O)CCCCCCCSCC(NC(=O)CCC(N)C(=O)O)C(=O)NCC(=O)O)C(=O)NCC(=O)O)C(=O)O (stereo not shown) [Ic] | 80 nM | 160 nM |  |  | 
31 | NC(=O)c1cccc(CNC(=O)CCCC(=O)NCSCC(NC(=O)CCC(N)C(=O)O)C(=O)NCC(=O)O)c1 (stereo not shown) [Ih*, reference compound] | 39300 nM | > 10000 nM |  |  | 
32 | C=C(CC)C(=O)c1ccc(OCC(=O)NCC(=O)NCc2cc(CNC(=O)CNC(=O)COc3ccc(C(=O)C(=C)CC)c(Cl)c3Cl)cc(C(N)=O)c2)c(Cl)c1Cl [IVd] | 634 nM | 23 nM |  |  | 

Source: patent publication US20050004038A1, “Bivalent inhibitors of Glutathione-S-Transferases” (priority 2003, published 2005)
